Assay results: PMC10539501 (Nature Communications, 2023)
Starred links: 1 amine or outer side, 2 acyl side, 3 side chain; linkers in the order of their positions; H or OH if unused. Non-standard residues stand in square brackets, D forms with d. Residues, ends and D or L forms follow the SMILES beside them. X6 = O=C([C@H](Cc1ccc(O)cc1)NC(=S)[C@H]1CCCN1[*:1])[*:2]; X5 = CC(C)C[C@H](NC(=S)[C@H](CC(C)C)N[*:1])C(=O)[*:2]; X4 = CC(C)C[C@H](N[*:1])C(=S)N1CCC[C@@H]1C(=O)[*:2]

How the values were obtained:
[1] = assay type: physicochemical
[2] = PAMPA passive permeability; assay type: in vitro ADME; details: for Papp: Pe Avg;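 as to all read-outs here: passive permeability across an artificial membrane in 96-well pre-coated PAMPA plates, which lack transporters and efflux systems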
[3] = assay type: physicochemical; remark: listed apart in the source
physchem = details: pH 7.4
in vitro [4] = details: both, human, plasma
pepsin = pepsin (Sus scrofa, UniProt P00791); test: in vitro; details: simulated gastric fluid, pH 1.2
in vitro [5] = details: pig, simulated intestinal fluid
in vitro [6] = details: human, microsomes
in vitro [7] = details: both, human, plasma; remark: listed apart in the source
in vitro [8] = assay type: in vitro ADME, human
Caco-2 cells = test: in vitro; assay type: in vitro ADME, human; details: Caco-2
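For Papp A-B + Elacridar avg in this document: Caco-2 monolayers used 21 days after seeding in HBSS-HEPES buffer with 1% DMSO, donor and acceptor levels quantified by LC-MS/MS, TEER checked before and after.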
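For Papp A-B + Elacridar set 1 in this document: Caco-2 monolayers used 21 days after seeding in HBSS-HEPES buffer with 1% DMSO, donor and acceptor levels quantified by LC-MS/MS, TEER checked before and after.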
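For Papp A-B + Elacridar set 2 in this document: Caco-2 monolayers used 21 days after seeding in HBSS-HEPES buffer with 1% DMSO, donor and acceptor levels quantified by LC-MS/MS, TEER checked before and after.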
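For Papp A-B avg in this document: Caco-2 monolayers used 21 days after seeding in HBSS-HEPES buffer with 1% DMSO, donor and acceptor levels quantified by LC-MS/MS, TEER checked before and after.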

Chain of pepsin (P00791 60-385): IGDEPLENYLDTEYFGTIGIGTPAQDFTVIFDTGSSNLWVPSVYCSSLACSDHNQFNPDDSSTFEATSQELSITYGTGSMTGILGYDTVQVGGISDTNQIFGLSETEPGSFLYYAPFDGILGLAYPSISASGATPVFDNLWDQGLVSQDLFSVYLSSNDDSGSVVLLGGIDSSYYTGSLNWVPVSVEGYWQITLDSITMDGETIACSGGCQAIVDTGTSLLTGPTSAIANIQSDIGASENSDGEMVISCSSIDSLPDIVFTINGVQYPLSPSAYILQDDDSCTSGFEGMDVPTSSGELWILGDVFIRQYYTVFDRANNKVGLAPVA

## CC(C)C[C@@H]1NC(=O)[C@H](Cc2ccc(O)cc2)NC(=S)[C@H]2CCCN2C(=O)[C@H](CC(C)C)NC(=O)[C@H](CC(C)C)NC(=O)[C@@H](CC(C)C)NC1=O [10d] (cyclo(LL[X6]L[dL]))
[1]
  % solubility: 22%
[2]
  Pe Avg: 4.2 ×10⁻⁶ cm/s
  Pe set1: 2.03 ×10⁻⁶ cm/s
  Pe set2: 5.97 ×10⁻⁶ cm/s
  Pe set3: 4.7 ×10⁻⁶ cm/s
  Papp: 4.2 ×10⁻⁶ cm/s
[3]
  logD heptane ethylene glycol: 0.72
Human liver microsomes
  Half lives: 29.5
physchem
  logD: 1.24
In vitro [4]
  fraction unbound: 0.03
pepsin
  half-life: 0.4 h
  remaining at 5 min: 75%
  remaining at 10 min: 66%
  remaining at 20 min: 56%
  remaining at 0.5 h: 44%
  remaining at 1 h: 37%
  remaining at 2 h: 29%
  remaining at 4 h: 21%
  remaining at 8 h: 16%
  remaining at 12 h: 6%
  remaining at 24 h: 2%
In vitro [5]
  half-life: 1.35 h
  remaining at 10 min: 79.4%
  remaining at 0.5 h: 62.8%
  remaining at 1 h: 56.2%
  remaining at 2 h: 38.5%
  remaining at 4 h: 31.9%
  remaining at 8 h: 19.6%
  remaining at 12 h: 11.2%
  remaining at 24 h: 5.8%
In vitro [6]
  microsomal CLint: 47 µL/min/mg
  remaining at 5 min: 96%
  remaining at 10 min: 71%
  remaining at 20 min: 61%
  remaining at 0.5 h: 50%
  remaining at 0.75 h: 40%
  remaining at 1 h: 20%
In vitro [7]
  half-life: 20 h
  remaining at 1 h: 86%
  remaining at 3 h: 81%
  remaining at 5 h: 78%
  remaining at 7 h: 63%
  remaining at 9 h: 59%
  remaining at 12 h: 64%
  remaining at 24 h: 46%
  remaining at 36 h: 35%
  remaining at 48 h: 31%
  remaining at 60 h: 21%
  remaining at 72 h: 19%

## CC(C)C[C@@H]1NC(=O)[C@H](Cc2ccc(O)cc2)NC(=O)[C@H]2CCCN2C(=O)[C@H](CC(C)C)NC(=S)[C@H](CC(C)C)NC(=O)[C@@H](CC(C)C)NC1=O [10b] (cyclo(L[dL][X5][dP]Y))
[1]
  % solubility: 26%
[2]
  Pe Avg: 4.3 ×10⁻⁶ cm/s
  Pe set1: 4.84 ×10⁻⁶ cm/s
  Pe set2: 3.05 ×10⁻⁶ cm/s
  Pe set3: 5.14 ×10⁻⁶ cm/s
  Papp: 4.3 ×10⁻⁶ cm/s
[3]
  logD heptane ethylene glycol: 0.62
Human liver microsomes
  Half lives: 19.0
physchem
  logD: 1.42
In vitro [4]
  fraction unbound: 0.31
pepsin
  half-life: 0.283 h
  remaining at 5 min: 72%
  remaining at 10 min: 57%
  remaining at 20 min: 47%
  remaining at 0.5 h: 38%
  remaining at 1 h: 33%
  remaining at 2 h: 27%
  remaining at 4 h: 23%
  remaining at 8 h: 17%
  remaining at 12 h: 10%
  remaining at 24 h: 5%
In vitro [5]
  half-life: 1.6 h
  remaining at 10 min: 71.7%
  remaining at 0.5 h: 53.6%
  remaining at 1 h: 47.1%
  remaining at 2 h: 39%
  remaining at 4 h: 32.1%
  remaining at 8 h: 26.6%
  remaining at 12 h: 16.6%
  remaining at 24 h: 10.3%
In vitro [6]
  microsomal CLint: 73 µL/min/mg
  remaining at 5 min: 85%
  remaining at 10 min: 65%
  remaining at 20 min: 49%
  remaining at 0.5 h: 34%
  remaining at 0.75 h: 28%
  remaining at 1 h: 15%
In vitro [7]
  half-life: 23 h
  remaining at 1 h: 91%
  remaining at 3 h: 85%
  remaining at 5 h: 80%
  remaining at 7 h: 76%
  remaining at 9 h: 74%
  remaining at 12 h: 59%
  remaining at 24 h: 47%
  remaining at 36 h: 33%
  remaining at 48 h: 25%
  remaining at 60 h: 15%
  remaining at 72 h: 7%

## CC(C)C[C@@H]1NC(=O)[C@H](Cc2ccc(O)cc2)NC(=O)[C@H]2CCCN2C(=S)[C@H](CC(C)C)NC(=O)[C@H](CC(C)C)NC(=O)[C@@H](CC(C)C)NC1=O [10c] (cyclo(L[dL]L[X4]Y))
[1]
  % solubility: 69%
[2]
  Pe Avg: 3.1 ×10⁻⁶ cm/s
  Pe set1: 2.92 ×10⁻⁶ cm/s
  Pe set2: 3.69 ×10⁻⁶ cm/s
  Pe set3: 2.79 ×10⁻⁶ cm/s
  Papp: 3.1 ×10⁻⁶ cm/s
[3]
  logD heptane ethylene glycol: 0.72
In vitro [8]; Caco-2, Papp B-A + Elacridar avg
  Papp B→A: 0.6 ×10⁻⁶ cm/s
In vitro [8]; Caco-2, Papp B-A avg
  Papp B→A: 5.26 ×10⁻⁶ cm/s
Caco-2 cells
  Papp A-B + Elacridar avg: 0 ×10⁻⁶ cm/s
  Papp A-B + Elacridar set 1: 0 ×10⁻⁶ cm/s
  Papp A-B + Elacridar set 2: 0 ×10⁻⁶ cm/s
  Papp A-B avg: 0 cm/s
  Papp A-B avg (second block): 0.00 cm/s
  Papp A-B set 1: 0 cm/s
  Papp A-B set 1 (second block): 0.00 cm/s
  Papp A-B set 2: 0 cm/s
  Papp A-B set 2 (second block): 0.00 cm/s
  Papp AB+Elacridar (PAMPA Caco2 correlation): 0 ×10⁻⁶ cm/s
  Papp B-A avg (second block): 5.3 ×10⁻⁶ cm/s
  Papp B-A set 1 (second block): 4.5 ×10⁻⁶ cm/s
  Papp B-A set 2 (second block): 6.1 ×10⁻⁶ cm/s
Human liver microsomes
  Half lives: 13.8
physchem
  logD: 1.27
In vitro [4]
  fraction unbound: 0.24
pepsin
  half-life: 0.333 h
  remaining at 5 min: 76%
  remaining at 10 min: 68%
  remaining at 20 min: 50%
  remaining at 0.5 h: 41%
  remaining at 1 h: 31%
  remaining at 2 h: 26%
  remaining at 4 h: 19%
  remaining at 8 h: 12%
  remaining at 12 h: 5%
  remaining at 24 h: 0%
In vitro [5]
  half-life: 0.567 h
  remaining at 10 min: 70%
  remaining at 0.5 h: 50.7%
  remaining at 1 h: 46.6%
  remaining at 2 h: 38.4%
  remaining at 4 h: 29.3%
  remaining at 8 h: 26.2%
  remaining at 12 h: 20.6%
  remaining at 24 h: 12.8%
In vitro [6]
  microsomal CLint: 106 µL/min/mg
  remaining at 5 min: 76%
  remaining at 10 min: 56%
  remaining at 20 min: 45%
  remaining at 0.5 h: 35%
  remaining at 0.75 h: 16%
  remaining at 1 h: 17%
In vitro [7]
  half-life: 21 h
  remaining at 1 h: 87%
  remaining at 3 h: 83%
  remaining at 5 h: 78%
  remaining at 7 h: 75%
  remaining at 9 h: 64%
  remaining at 12 h: 60%
  remaining at 24 h: 44%
  remaining at 36 h: 34%
  remaining at 48 h: 26%
  remaining at 60 h: 10%
  remaining at 72 h: 12%
